“And” between values parts separate entries of the source, which are not always exact repeats. Identical values can stand only once.
What was measured:
[1] = system: FGFR3 in SW780 cells (phospho-ERK1/2); experiment: Drug washout Western blot assay, SW780 cells; format: cell-based; conditions: for exposure concentration for irreversible inhibition (fully covalently bind the target) in cells: SW780 (FGFR3), 30 minute exposure; for inhibition of phosphorylation of ERK1/2, no washout / phospho-ERK1/2 after extensive drug washout / reversible or irreversible inhibition of FGFR3 in cells: SW780; for inhibition of phosphorylation of ERK1/2, no washout / phospho-ERK1/2 after extensive drug washout: 30 min; for inhibition of phosphorylation of ERK1/2, no washout: then FGF-stimulation; for phospho-ERK1/2 after extensive drug washout: washout prior to FGF-stimulation; for reversible or irreversible inhibition of FGFR3 in cells: with and without washout
[2] = system: FGFR2-amplified SUM52 breast cancer cells; experiment: Cell proliferation assay (SRB); format: cell-based; conditions: SUM52, 120 h, read-out: Cellular Anti-proliferative IC50, SUM52, 5 days drug exposure
[3] = system: FGFR3-amplified SW780 bladder cancer cells; experiment: Cell proliferation assay (SRB); conditions: Homo sapiens, SW780, 120 h, read-out: Cellular Anti-proliferative IC50, SW780
[4] = system: FGFR2 in SUM52 cells (phospho-ERK1/2); experiment: Drug washout Western blot assay, SUM52 cells; format: cell-based; conditions: for exposure concentration for irreversible inhibition (fully covalently bind the target) in cells: SUM52 (FGFR2), 30 minute exposure; for inhibition of phosphorylation of ERK1/2, no washout / phospho-ERK1/2 after extensive drug washout: 30 min; for inhibition of phosphorylation of ERK1/2, no washout: then FGF-stimulation; for phospho-ERK1/2 after extensive drug washout: washout prior to FGF-stimulation
Experimental: Cells were seeded on the day prior to drug treatment (1 million cells/well; 6-well plate).
Drug stocks were prepared in media using 1 mM or 10 mM DMSO stock solutions. Media was aspirated from each well and replaced with 2 ml of drug-free media for control wells or 2 ml of diluted drug for treated wells. Cells were exposed to drug for 30 min. Recombinant FGF (50 ng/well) was added to each well 15 minutes prior to the end of the drug exposure and protein was extracted as below.
Cells were exposed to drug for 30 min as above. Media was aspirated and each well was washed with 5 ml drug-free media. The wash media was aspirated and replaced with 2 ml drug-free media and cells incubated for a further 30 minutes, after which the wash protocol was repeated. Cells were incubated for a further 90 minutes in drug-free media. Recombinant FGF (50 ng/well) was added to each well 15 minutes prior to the end of the drug-free incubation and protein was extracted as below.
Cell lysates were prepared in 250 μL of RIPA lysis buffer containing protease inhibitor (1:100). After incubation on ice (30 min) and centrifugation (13,000 rpm, 5 min, 4° C.) the supernatants containing the proteins were stored (−20° C.) until required. Bicinchoninic acid (BCA) assay was used to determine the protein concentration of individual cell lysate samples.

[5] = target: T1, FGFR1 (Homo sapiens, UniProt P11362); experiment: Isolated enzyme FRET-based Z-Lyte kinase inhibition assay; format: biochemical; conditions: means from 3 independent experiments; read-out: Isolate Enzyme Inhibition IC50, FGFR1
T1 construct: purchased Invitrogen
Experimental: (§1) FGFR1-4 and the Z-Lyte Kinase Assay Kit were purchased from Invitrogen. The concentration gradients from 5.1×10^−11 to 1.0×10^−6 mol/L were used for all the test compounds. The experiments were performed according to the instructions of the manufacturer.
(§2) FGFR1-4 isolated enzyme activity was determined using the FRET-based Z-Lyte kinase inhibition assay. The data are the means from 3 independent experiments.

[6] = target: T2, FGFR4 (Homo sapiens, UniProt P22455); experiment: as above; format: biochemical; conditions: means from 3 independent experiments; read-out: Isolate Enzyme Inhibition IC50, FGFR4
T2 construct: purchased Invitrogen
Experimental: as §1, §2

[7] = target: T3, FGFR2 (Homo sapiens, UniProt P21802); experiment: as above; format: biochemical; conditions: means from 3 independent experiments; read-out: Isolate Enzyme Inhibition IC50, FGFR2
T3 construct: purchased Invitrogen
Experimental: as §1, §2

[8] = target: T4, FGFR3 (Homo sapiens, UniProt P22607); experiment: as above; format: biochemical; conditions: means from 3 independent experiments; read-out: Isolate Enzyme Inhibition IC50, FGFR3
T4 construct: purchased Invitrogen
Experimental: as §1, §2

[9] = target: T5, recombinant FGFR1 (C584S) kinase domain (Homo sapiens, UniProt P11362, C584S); experiment: FGFR1 (C584S) covalent binding protein mass spectrometry assay; conditions: protein:inhibitor 1:10, 37° C.
T5 construct: made in house; host or cells: pETDuet vector, IPTG induction in Terrific Broth (bacterial)
Experimental: The previously cloned C488A/C584S FGFR1 construct was modified by site-directed mutagenesis to provide a gene encoding the C584S FGFR1 kinase domain with the cysteine at amino acid C488 reinstated. Expression and purification of this protein followed the protocol described above but with the addition of 10% glycerol to all buffers and a change of buffer pH to a value of 8.5. Protein for mass spectrometry was concentrated to ˜40 mg/ml and was mixed 1:1 (v/v) with glycerol, and then frozen at −20° C. or flash cooled in liquid nitrogen and stored at −80° C. until needed.
Protein samples were buffer exchanged to remove glycerol (the final buffer comprised 20 mM Tris-HCl pH 8.5, 10% (v/v) glycerol, 20 mM NaCl, 5 mM EDTA, 2 mM TCEP) and were mixed with each inhibitor at 1:10 molar ratio (protein:inhibitor). Final protein concentration was 20 μM. […] Samples were mixed with 90 μL of 0.1% formic acid to quench the reaction followed by flash cooling in liquid nitrogen. Samples were stored at −80° C. until needed. All experiments were carried out in triplicate.
Samples were subjected to liquid chromatography mass spectrometry (LC-MS) to show mass changes attributable to irreversible inhibition. Mass spectrometry experiments were performed at the University of Auckland Mass Spectrometry Center using an electropspray QSTAR® XL ESI quadrupole Time-of-Flight (QToF) MS system (Applied Biosystems) operated in positive ionization mode. The instrument was calibrated using Renin Substrate Standard (SCIEX), over the m/z range 100-2000. Protein/inhibitor samples were thawed and 2 μL volumes injected into a liquid chromatography (LC) BIOshell™ A400 Protein C4 HPLC column (10 cm×2.1 mm, 3.4 μm) attached to the mass spectrometer. […] Following elution, samples were directly injected into the mass spectrometer for separation and mass analysis. Mass spectrometry data were processed and analysed using the PeakView™ 2.1 software and the Bio Tool Kit plug-in (SCIEX) and covered an m/z range of 330-1600. Deconvolution calculations allowed visualisation of intact mass protein peaks and allowed peak area measurement to assess the percentage of protein covalently modified by each inhibitor at each time point. Data was plotted using GraphPad Prism 7 (GraphPad).

[10] = system: FGFR1 in H520 cells (phospho-ERK1/2); experiment: Drug washout Western blot assay, H520 cells; format: cell-based; conditions: for exposure concentration for irreversible inhibition (fully covalently bind the target) in cells: H520 (FGFR1), 30 minute exposure; for inhibition of phosphorylation of ERK1/2, no washout / phospho-ERK1/2 after extensive drug washout: 30 min; for inhibition of phosphorylation of ERK1/2, no washout: then FGF-stimulation; for phospho-ERK1/2 after extensive drug washout: washout prior to FGF-stimulation
[11] = system: FGFR1-amplified H520 non-small cell lung cancer cells; experiment: Cell proliferation assay (SRB); format: cell-based; conditions: Homo sapiens, NCI-H520, 168 h, read-out: Cellular Anti-proliferative IC50, H520
[12] = system: FGFR4-amplified Hep3B hepatocellular carcinoma cells; experiment: Cell proliferation assay (SRB); format: cell-based; conditions: Homo sapiens, Hep3B; read-out: Cellular Anti-proliferative IC50, Hep3B

T5 sequence (P11362 with tags, fused parts or gaps C584S): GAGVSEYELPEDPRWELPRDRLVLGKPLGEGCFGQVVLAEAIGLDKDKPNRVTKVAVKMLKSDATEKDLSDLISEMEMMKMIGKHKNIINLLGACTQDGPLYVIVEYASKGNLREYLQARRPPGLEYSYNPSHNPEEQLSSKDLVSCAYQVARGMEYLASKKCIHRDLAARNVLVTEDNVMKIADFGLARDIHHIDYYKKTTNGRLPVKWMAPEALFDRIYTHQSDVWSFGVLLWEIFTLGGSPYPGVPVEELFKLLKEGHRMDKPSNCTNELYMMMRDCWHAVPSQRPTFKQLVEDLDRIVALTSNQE
T2 sequence (P22455 22-802): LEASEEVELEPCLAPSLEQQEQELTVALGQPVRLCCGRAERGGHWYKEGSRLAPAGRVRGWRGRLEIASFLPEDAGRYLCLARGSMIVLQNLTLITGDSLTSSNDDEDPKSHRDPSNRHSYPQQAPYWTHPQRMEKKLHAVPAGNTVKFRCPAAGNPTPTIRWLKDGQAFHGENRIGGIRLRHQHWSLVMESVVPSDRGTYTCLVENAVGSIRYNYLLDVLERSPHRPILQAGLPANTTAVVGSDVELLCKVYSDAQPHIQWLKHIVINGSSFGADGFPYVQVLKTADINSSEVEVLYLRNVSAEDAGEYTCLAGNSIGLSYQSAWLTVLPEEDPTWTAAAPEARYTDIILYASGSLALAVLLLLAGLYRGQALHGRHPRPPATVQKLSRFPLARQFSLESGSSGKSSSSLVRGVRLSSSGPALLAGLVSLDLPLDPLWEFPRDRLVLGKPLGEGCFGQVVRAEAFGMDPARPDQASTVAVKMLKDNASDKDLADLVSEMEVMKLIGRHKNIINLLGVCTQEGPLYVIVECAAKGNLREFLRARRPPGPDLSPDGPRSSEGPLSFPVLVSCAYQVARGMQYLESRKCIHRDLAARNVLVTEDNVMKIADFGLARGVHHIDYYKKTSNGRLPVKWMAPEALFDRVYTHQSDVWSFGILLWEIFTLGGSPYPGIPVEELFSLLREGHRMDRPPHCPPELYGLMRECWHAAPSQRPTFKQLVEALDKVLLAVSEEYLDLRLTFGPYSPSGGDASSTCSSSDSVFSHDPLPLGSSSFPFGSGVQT
T1 sequence (P11362 22-822): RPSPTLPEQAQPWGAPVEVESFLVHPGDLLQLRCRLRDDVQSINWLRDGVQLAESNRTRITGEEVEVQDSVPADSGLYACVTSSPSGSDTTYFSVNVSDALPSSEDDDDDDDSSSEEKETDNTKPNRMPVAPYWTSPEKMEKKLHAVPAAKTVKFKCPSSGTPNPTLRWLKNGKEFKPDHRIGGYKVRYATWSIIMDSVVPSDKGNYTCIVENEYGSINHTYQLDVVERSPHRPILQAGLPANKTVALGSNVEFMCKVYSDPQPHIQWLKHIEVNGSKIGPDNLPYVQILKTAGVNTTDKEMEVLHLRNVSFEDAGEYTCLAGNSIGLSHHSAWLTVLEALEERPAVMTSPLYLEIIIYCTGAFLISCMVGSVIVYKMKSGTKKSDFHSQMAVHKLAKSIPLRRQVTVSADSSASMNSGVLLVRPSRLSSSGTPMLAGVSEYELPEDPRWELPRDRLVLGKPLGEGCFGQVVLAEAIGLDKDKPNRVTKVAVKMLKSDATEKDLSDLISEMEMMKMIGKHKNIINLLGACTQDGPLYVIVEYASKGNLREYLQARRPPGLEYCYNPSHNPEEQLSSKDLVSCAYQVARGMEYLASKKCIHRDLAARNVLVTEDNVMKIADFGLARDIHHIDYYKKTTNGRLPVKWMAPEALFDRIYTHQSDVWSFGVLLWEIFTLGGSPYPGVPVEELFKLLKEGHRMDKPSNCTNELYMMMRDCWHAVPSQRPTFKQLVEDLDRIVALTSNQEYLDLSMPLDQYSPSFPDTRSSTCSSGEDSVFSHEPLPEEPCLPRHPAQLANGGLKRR
T4 sequence (P22607 23-806): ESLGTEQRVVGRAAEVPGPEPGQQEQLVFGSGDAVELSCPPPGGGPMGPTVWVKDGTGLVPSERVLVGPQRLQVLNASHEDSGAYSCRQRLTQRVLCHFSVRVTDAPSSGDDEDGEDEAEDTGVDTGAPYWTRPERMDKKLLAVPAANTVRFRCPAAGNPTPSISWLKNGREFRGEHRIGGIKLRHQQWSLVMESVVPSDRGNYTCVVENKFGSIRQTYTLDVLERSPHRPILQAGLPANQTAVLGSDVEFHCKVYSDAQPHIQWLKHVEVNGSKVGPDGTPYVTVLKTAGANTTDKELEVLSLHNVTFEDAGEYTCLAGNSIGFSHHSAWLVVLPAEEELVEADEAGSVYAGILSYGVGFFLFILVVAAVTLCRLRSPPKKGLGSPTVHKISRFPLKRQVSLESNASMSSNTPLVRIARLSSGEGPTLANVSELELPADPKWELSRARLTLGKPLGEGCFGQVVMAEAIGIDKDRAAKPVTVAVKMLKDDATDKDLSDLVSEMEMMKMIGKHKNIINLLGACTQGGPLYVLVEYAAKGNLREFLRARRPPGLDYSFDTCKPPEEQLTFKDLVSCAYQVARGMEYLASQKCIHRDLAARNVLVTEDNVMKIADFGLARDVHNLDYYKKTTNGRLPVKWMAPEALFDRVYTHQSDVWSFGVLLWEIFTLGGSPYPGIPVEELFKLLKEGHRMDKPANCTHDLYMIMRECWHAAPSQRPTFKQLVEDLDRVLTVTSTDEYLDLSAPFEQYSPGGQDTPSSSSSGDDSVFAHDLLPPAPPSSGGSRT
T3 sequence (P21802 22-821): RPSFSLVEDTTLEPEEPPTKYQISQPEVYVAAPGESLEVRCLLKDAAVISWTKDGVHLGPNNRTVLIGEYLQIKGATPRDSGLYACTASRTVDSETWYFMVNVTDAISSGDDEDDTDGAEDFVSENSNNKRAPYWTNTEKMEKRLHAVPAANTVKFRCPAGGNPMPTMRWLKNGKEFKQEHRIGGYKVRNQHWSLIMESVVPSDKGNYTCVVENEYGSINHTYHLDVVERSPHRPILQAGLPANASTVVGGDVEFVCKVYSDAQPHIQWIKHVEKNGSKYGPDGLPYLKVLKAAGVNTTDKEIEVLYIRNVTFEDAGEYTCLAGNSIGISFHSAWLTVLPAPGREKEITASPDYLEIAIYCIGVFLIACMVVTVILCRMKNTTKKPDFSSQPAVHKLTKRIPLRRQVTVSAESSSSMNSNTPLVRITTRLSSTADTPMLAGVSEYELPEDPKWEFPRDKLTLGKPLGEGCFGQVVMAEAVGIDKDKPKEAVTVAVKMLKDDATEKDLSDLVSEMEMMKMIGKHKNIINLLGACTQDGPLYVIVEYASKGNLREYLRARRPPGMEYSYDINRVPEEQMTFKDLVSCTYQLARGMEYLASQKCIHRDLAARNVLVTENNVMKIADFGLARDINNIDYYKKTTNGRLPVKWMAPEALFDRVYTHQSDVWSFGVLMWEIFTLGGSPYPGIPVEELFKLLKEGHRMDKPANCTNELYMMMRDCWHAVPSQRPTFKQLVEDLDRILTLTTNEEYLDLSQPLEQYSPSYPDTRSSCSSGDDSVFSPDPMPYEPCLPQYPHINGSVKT

% Conversion to FGFR1 (C584S) covalent adduct after 120 minutes incubation [9] [%] | SMILES | exposure concentration for irreversible inhibition (fully covalently bind the target) in cells [1] [nM] | inhibition of phosphorylation of ERK1/2, no washout ([1]; 100 nM) | phospho-ERK1/2 after extensive drug washout ([1]; 100 nM) | phospho-ERK1/2 after extensive drug washout ([1]; 1000 nM) | IC50 [2] [nM] | IC50 [3] [nM] | exposure concentration for irreversible inhibition (fully covalently bind the target) in cells [4] [nM] | inhibition of phosphorylation of ERK1/2, no washout ([4]; SUM52, 100 nM) | phospho-ERK1/2 after extensive drug washout ([4]; SUM52, 100 nM) | phospho-ERK1/2 after extensive drug washout ([4]; SUM52, 1000 nM) | IC50 [5] [nM] | IC50 [6] | IC50 [7] [nM] | IC50 [8] [nM] | exposure concentration for irreversible inhibition (fully covalently bind the target) in cells [10] [nM] | inhibition of phosphorylation of ERK1/2, no washout ([10]; H520, 100 nM) | phospho-ERK1/2 after extensive drug washout ([10]; H520, 100 nM) | phospho-ERK1/2 after extensive drug washout ([10]; H520, 1000 nM) | IC50 [11] [nM] | other results
48 | COc1cc(OC)c(Cl)c(N2Cc3cnc(Nc4ccccc4)nc3N(C3CCN(C(=O)/C=C/CN(C)C)CC3)C2=O)c1 [Compound 128, (E)-3-(2-chloro-3,5-dimethoxyphenyl)-1-(1-(4-(dimethylamino)but-2-enoyl)piperidin-4-yl)-7-(phenylamino)-3,4-dihydropyrimido[4,5-d]pyrimidin-2(1H)-one] |  |  |  |  |  |  |  |  |  |  |  |  |  |  |  |  |  |  |  | 
46 | COc1cc(OC)c(Cl)c(N2Cc3cnc(Nc4ccc(N5CCOCC5)cc4)nc3N(C3CCN(C(=O)/C=C/CN(C)C)CC3)C2=O)c1 [Compound 130, (E)-3-(2-chloro-3,5-dimethoxyphenyl)-1-(1-(4-(dimethylamino)but-2-enoyl)piperidin-4-yl)-7-((4-morpholinophenyl)amino)-3,4-dihydropyrimido[4,5-d]pyrimidin-2(1H)-one] |  |  |  |  |  |  |  |  |  |  |  |  |  |  |  |  |  |  |  | 

The next lines start with the molecule.

SMILES | % Conversion to FGFR1 (C584S) covalent adduct after 120 minutes incubation [9] [%] | exposure concentration for irreversible inhibition (fully covalently bind the target) in cells [1] [nM] | inhibition of phosphorylation of ERK1/2, no washout ([1]; 100 nM) | phospho-ERK1/2 after extensive drug washout ([1]; 100 nM) | phospho-ERK1/2 after extensive drug washout ([1]; 1000 nM) | IC50 [2] [nM] | IC50 [3] [nM] | exposure concentration for irreversible inhibition (fully covalently bind the target) in cells [4] [nM] | inhibition of phosphorylation of ERK1/2, no washout ([4]; SUM52, 100 nM) | phospho-ERK1/2 after extensive drug washout ([4]; SUM52, 100 nM) | phospho-ERK1/2 after extensive drug washout ([4]; SUM52, 1000 nM) | IC50 [5] [nM] | IC50 [6] | IC50 [7] [nM] | IC50 [8] [nM] | exposure concentration for irreversible inhibition (fully covalently bind the target) in cells [10] [nM] | inhibition of phosphorylation of ERK1/2, no washout ([10]; H520, 100 nM) | phospho-ERK1/2 after extensive drug washout ([10]; H520, 100 nM) | phospho-ERK1/2 after extensive drug washout ([10]; H520, 1000 nM) | IC50 [11] [nM] | other results
COc1cc(OC)c(Cl)c(N2Cc3cnc(Nc4ccccc4)nc3N([C@H]3CCN(C(=O)/C=C/CN(C)C)C3)C2=O)c1Cl [Compound 106, (S,E)-3-(2,6-dichloro-3,5-dimethoxyphenyl)-1-(1-(4-(dimethylamino)but-2-enoyl)pyrrolidin-3-yl)-7-(phenylamino)-3,4-dihydropyrimido[4,5-d]pyrimidin-2(1H)-one] | 11 | 100 | complete inhibition | fully inhibited | essential full inhibition | 0.5 | 5 | 100 | complete inhibition | fully inhibited | essential full inhibition | 1.1 | < 100 nM and 94 nM | 26 | 17 | 100 | complete inhibition | fully inhibited | essential full inhibition | 11 | reversible or irreversible inhibition of FGFR3 in cells ([1]; 30 min exposure, 100 nM): potent irreversible inhibitor; reversible or irreversible inhibition of FGFR3 in cells ([1]; 120 minutes exposure, 100 nM): irreversible; reversible or irreversible inhibition of FGFR2 in cells ([4]; SUM52, 30 min exposure, 100 nM, with and without washout): potent irreversible inhibitor; reversible or irreversible inhibition of FGFR1 in cells ([10]; H520, 30 min exposure, 100 nM, with and without washout): potent irreversible inhibitor; IC50 [12]: 5.5 nM
COc1cc(OC)c(Cl)c(N2Cc3cnc(NC4CCCCC4)nc3N([C@H]3CCN(C(=O)/C=C/CN(C)C)C3)C2=O)c1Cl [Compound 105, (S,E)-7-(cyclohexylamino)-3-(2,6-dichloro-3,5-dimethoxyphenyl)-1-(1-(4-(dimethylamino)but-2-enoyl)pyrrolidin-3-yl)-3,4-dihydropyrimido[4,5-d]pyrimidin-2(1H)-one] | 8 | 1000 | complete inhibition | fully restored | essential full inhibition | 2.1 | 4 | 1000 | complete inhibition | remained inhibited | essential full inhibition | 1.2 | 729 nM | 16 | 33 | 1000 | complete inhibition | partially inhibited | essential full inhibition | 68 | IC50 [12]: 80 nM
COc1cc(OC)c(Cl)c(N2Cc3cnc(Nc4ccc(N5CCOCC5)cc4)nc3N(C3CCN(C(=O)/C=C/CN(C)C)CC3)C2=O)c1Cl [Compound 129, (E)-3-(2,6-dichloro-3,5-dimethoxyphenyl)-1-(1-(4-(dimethylamino)but-2-enoyl)piperidin-4-yl)-7-((4-morpholinophenyl)amino)-3,4-dihydropyrimido[4,5-d]pyrimidin-2(1H)-one] | 46 |  |  |  |  |  |  |  |  |  |  |  |  |  |  |  |  |  |  |  | 
COc1cc(OC)cc(N2Cc3cnc(Nc4ccc(N5CCOCC5)cc4)nc3N(C3CCN(C(=O)/C=C/CN(C)C)CC3)C2=O)c1 [Compound 131, (E)-3-(3,5-dimethoxyphenyl)-1-(1-(4-(dimethylamino)but-2-enoyl)piperidin-4-yl)-7-((4-morpholinophenyl)amino)-3,4-dihydropyrimido[4,5-d]pyrimidin-2(1H)-one] | 39 |  |  |  |  |  |  |  |  |  |  |  |  |  |  |  |  |  |  |  | 
